Assay results taken from US8129424B2, “Indole derivatives as histamine 3 receptor inhibitors for the treatment of cognitive and sleep disorders, obesity and other CNS disorders” (Athersys, Inc., priority 2005, dated 2012).

Columns and labels:
[1] = molecular target: T1, human histamine H3 receptor (Homo sapiens, UniProt Q9Y5N1); assay: Calcium mobilization assay (FLIPR), inhibition of (R)-α-methylhistamine-stimulated Ca2+ flux in RAGE-H3 cells; format: cell-based; details: determined using FLIPR
T1 construct: expressed in transfected cells; host or cells: HT1080-Gqαi5 cells (human), pFG8-HH3 RAGE vector integrated; methotrexate-amplified clone RAGE-H3
Method: The human histamine H3 receptor was stably expressed in HT1080 cells containing the chimeric G-protein, Gq[…]i5 (Coward et al., Anal Biochem 1999; 270:242-8). HT1080-Gqαi5 cells were grown in alpha-modified MEM containing 10% fetal bovine serum and 7 μg/ml blasticidin at 37° C. in 5% CO2/95% atmosphere. Cells (4.8×10^9) were irradiated with 50 rads from a ^137Cs source and the pFG8-HH3 RAGE (Random Activation of Gene Expression; see Harrington et al., Nature Biotechnology. 2001; 19:440-45) vector was subsequently integrated into the cells via electroporation (250V, 600 μF, 50Ω). The RAGE vector pFG8-HH3 contained cDNA sequence coding for the first exon (83 amino acids) of human H3 receptor. After electroporation, cells were plated in T75 flasks and grown in alpha-modified MEM. The culture medium was replaced 48 hours after electroporation with alpha-modified MEM, 10% fetal bovine serum, 500 μg/ml hygromycin B and 3 μg/ml puromycin. Medium was replaced every four days during cell expansion. To identify RAGE activated cells expressing the H3 receptor, pools of approximately 10,000 colonies (5×10^7-1.5×10^8 cells total) were screened by PCR for the desired gene product (using primers specific to the RAGE vector and exon 2 of the H3 receptor). […] Positive 100 cells/well pools were identified by PCR, confirmed by sequencing, and subsequently subcloned to 0.8 cells/well. Once clones expressing the H3 receptor were identified by PCR analysis, assays (FLIPR or radioligand binding) were performed to confirm that the activated gene produced functional protein. The protein expression in the initial clones obtained from the RAGE library was increased by growth in the presence of methotrexate. Since the integrated RAGE vector contains the DHFR gene, such treatment selects for cells that have amplified the genetic locus containing the RAGE insert. Subclones obtained after methotrexate amplification were tested for functional activity in FLIPR assays to identify the clone that was most suitable for HTS. The final HT1080-Gqαi5 RAGE clone (RAGE-H3) expressing the human histamine H3 receptor was grown in alpha-modified MEM containing 10% fetal bovine serum, 3 μg/ml puromycin, 500 μg/ml hygromycin B, 3.2 μM methotrexate at 37° C. in 5% CO2/95% atmosphere.
RAGE-H3 or HT1080-mH3 cells were seeded in black 384-well plates and incubated overnight at 37° C. in a 5% CO2/95% atmosphere. After removing medium, cells were treated with CsCl Ringer's buffer (136 mM CsCl, 5.4 mM KCl, 5.5 mM D-Glucose, 20 mM Hepes, pH 7.4, 2.1 mM MgCl2, 1.2 mM CaCl2) containing the Calcium 3 dye (Molecular Device, CA) and probenecid (3.75 mM) for 60 minutes, according to manufacture's instruction. Compounds were diluted in CsCl Ringer's buffer containing 0.2% bovine serum albumin and 1.0% DMSO. The dose response of (R)-α-methylhistamine-stimulated Ca^2+ flux was measured on a Fluorometric Imaging Plate Reader (FLIPR, Molecular Devices, CA) and the concentration of (R)-α-methylhistamine to stimulate 75% of maximum response was used to test the inhibitory effect of compounds.
All data were analyzed by nonlinear least squares curve fitting using Prism 4.0 software. The KD and Bmax for [^125I]iodoproxyfan were derived from the equation RL=RtL/(KD+L), where RL is concentration of receptor-bound ligand at equilibrium, L is the free ligand concentration, and Rt is the total receptor concentration (i.e., Bmax). For competition binding experiments, IC50 values (the concentration of compound producing 50% inhibition of specific binding) and Hill Coefficients (nH) were derived from fitting the data to a 4-parameter logistic equation. Apparent Ki values were calculated using the Cheng-Prussof equation of Ki=IC50/(1+(L/KD)), where L is the ligand concentration. […]

H3 receptor [2] = details: cat, cited from earlier work
H3 receptor [3] = molecular target: T2, H3 receptor (Rattus norvegicus, UniProt Q9QYN8); details: rats; cited from earlier work
T2 construct: host or cells: living rats

[4] = cited from earlier work
H3 receptor [5] = details: in vivo studies; cited from earlier work

T1 sequence (Q9Y5N1 whole entry): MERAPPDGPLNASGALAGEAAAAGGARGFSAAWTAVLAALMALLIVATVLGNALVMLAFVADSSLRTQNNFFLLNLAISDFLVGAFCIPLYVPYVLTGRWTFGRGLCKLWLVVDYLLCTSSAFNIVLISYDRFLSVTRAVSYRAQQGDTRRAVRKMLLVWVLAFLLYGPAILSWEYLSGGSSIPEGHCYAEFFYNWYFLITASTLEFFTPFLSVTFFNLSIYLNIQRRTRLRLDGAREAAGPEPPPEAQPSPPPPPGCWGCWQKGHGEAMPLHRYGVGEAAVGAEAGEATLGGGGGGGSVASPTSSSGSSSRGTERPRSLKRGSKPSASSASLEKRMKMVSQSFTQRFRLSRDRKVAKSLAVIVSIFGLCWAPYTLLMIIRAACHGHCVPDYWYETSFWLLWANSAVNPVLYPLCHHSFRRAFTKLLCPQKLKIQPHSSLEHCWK
T2 sequence (Q9QYN8 whole entry): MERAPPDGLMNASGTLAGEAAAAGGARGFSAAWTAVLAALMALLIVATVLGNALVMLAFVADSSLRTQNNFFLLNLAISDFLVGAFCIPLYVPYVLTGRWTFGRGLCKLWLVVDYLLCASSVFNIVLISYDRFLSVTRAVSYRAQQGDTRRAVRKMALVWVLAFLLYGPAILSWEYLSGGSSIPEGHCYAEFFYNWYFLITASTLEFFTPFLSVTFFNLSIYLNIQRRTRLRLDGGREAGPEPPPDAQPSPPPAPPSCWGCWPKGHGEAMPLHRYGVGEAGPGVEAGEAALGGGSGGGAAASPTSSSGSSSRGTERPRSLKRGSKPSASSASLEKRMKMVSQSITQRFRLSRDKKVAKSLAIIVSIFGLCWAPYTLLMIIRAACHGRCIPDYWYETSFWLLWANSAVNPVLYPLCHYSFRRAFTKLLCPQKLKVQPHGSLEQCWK

| IC50 [1] [nM] | SMILES | also measured |
| --- | --- | --- |
| < 100 | c1ccc2c(c1)ccn2-c1ccc(OCCCN2CCCC2)cc1 [Example 4, 1-[4-(3-Pyrrolidin-1-ylpropoxy)phenyl]-1H-indole] |  |
| < 100 | COc1ccc2c(c1)cc(C)n2-c1ccc(OCCCN2CCCC2)cc1 [Example 5, 5-Methoxy-2-methyl-1-[4-(3-pyrrolidin-1-ylpropoxy)phenyl]-1H-indole] |  |
| < 1000 | Cc1ccc2c(ccn2-c2ccc(OCCCN3CCCC3)cc2)c1 [Example 6, 5-Methyl-1-[4-(3-pyrrolidin-1-ylpropoxy)phenyl]-1H-indole] |  |
| < 1000 | Brc1ccc2c(ccn2-c2ccc(OCCCN3CCCC3)cc2)c1 [Example 7, 5-Bromo-1-[4-(3-pyrrolidin-1-ylpropoxy)phenyl]-1H-indole] |  |
| < 1000 | Clc1cccc2c1ccn2-c1ccc(OCCCN2CCCC2)cc1 [Example 8, 4-Chloro-1-[4-(3-pyrrolidin-1-ylpropoxy)phenyl]-1H-indole] |  |
| < 1000 | COc1ccc2c(ccn2-c2ccc(OCCCN3CCCC3)cc2)c1 [Example 9, 5-Methoxy-1-[4-(3-pyrrolidin-1-ylpropoxy)phenyl]-1H-indole] |  |
| < 1000 | Clc1ccc2c(ccn2-c2ccc(OCCCN3CCCC3)cc2)c1 [Example 10, 5-Chloro-1-[4-(3-pyrrolidin-1-ylpropoxy)phenyl]-1H-indole] |  |
| < 1000 | COc1cc(-n2c(C)cc3ccccc32)ccc1OCCCN1CCCC1 [Example 14, 1-[3-Methoxy-4-(3-pyrrolidin-1-ylpropoxy)phenyl]-2-methyl-1H-indole] |  |
| < 1000 | Cc1cc2ccccc2n1-c1ccc(OCCCN2CCCC2)c(Cl)c1 [Example 15, 1-[3-Chloro-4-(3-pyrrolidin-1-ylpropoxy)phenyl]-2-methyl-1H-indole] |  |
| < 100 | COc1ccc2c(c1)cc(C)n2-c1ccc(C#CCCN2CCCC2)cc1 [Example 17, 5-Methoxy-2-methyl-1-[4-(4-pyrrolidin-1-ylbut-1-ynyl)phenyl]-1H-indole] |  |
| < 100 | c1ccc2c(c1)cc(C1CC1)n2-c1ccc(OCCCN2CCCC2)cc1 [Example 37, 2-Cyclopropyl-1-[4-(3-pyrrolidin-1-ylpropoxy)phenyl]-1H-indole] |  |
|  | C[C@@H](N)Cc1cnc[nH]1 [RAMHA] | deep slow wave sleep (H3 receptor [2]; oral administration): significant increase |
|  | S=C(NC1CCCCC1)N1CCC(c2cnc[nH]2)CC1 [thioperamide] | slow-wave and REM sleep (H3 receptor [3]): decrease; wakefulness (H3 receptor [3]): increase wakefulness; durations of every convulsive phase ([4]; after electrically-induced convulsions): significantly and dose-dependently decrease; electroconvulsive threshold ([4]; in vivo): increase; wakefulness (H3 receptor [2]): enhanced wakefulness in a dose-dependent fashion; synthesis and release of histamine (H3 receptor [5]): increase |
